The structures appear in SMILES notation.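 96-well plates; 48 h exposure; 5 concentrations. Endpoints by linear interpolation between flanking doses. Not reached: highest tested concentration assigned. Here, GI50 denotes the concentration required for 50% inhibition of growth. TGI marks complete inhibition of growth.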

Some test systems named below: SR leukemia; NCI-H522 lung; HOP-92 NSCLC; BT-549 breast; EKVX NSCLC; CAKI-1 renal; SF-295 CNS; SK-OV-3 ovarian; OVCAR-3 ovarian; RPMI-8226 leukemia.
Assay in all cases: growth of human tumour cells (NCI), 48 h

As to `CCNC(=O)Nc1ccc(Oc2ccnc3ccc4c(ccn4C)c23)cc1`, the GI50 is 12.1 µM in the assay with SR leukemia; 43.8 µM in the assay with NCI-H522 lung; 45.5 µM in the assay on HOP-92 NSCLC; 56.3 µM with BT-549 breast; more than 100 µM with EKVX NSCLC; 0.236 µM in the assay with CAKI-1 renal. The GI50 in the assay with SF-295 CNS is 18.9 µM; in the assay with SK-OV-3 ovarian, 19.4 µM; in the assay on OVCAR-3 ovarian it was 19.7 µM; in the assay with RPMI-8226 leukemia, more than 100 µM. In addition, the TGI in the assay with SR leukemia is more than 100 µM; with NCI-H522 lung it was more than 100 µM; in the assay on HOP-92 NSCLC, more than 100 µM; with BT-549 breast, more than 100 µM; in the assay on EKVX NSCLC, more than 100 µM; with CAKI-1 renal it was 0.961 µM. The TGI is 72.1 µM in the assay on SF-295 CNS, 56.5 µM with SK-OV-3 ovarian, 42.2 µM in the assay with OVCAR-3 ovarian and more than 100 µM with RPMI-8226 leukemia.

As for `O=[N+]([O-])c1ccc(C2=Nn3c(nnc3-c3ccc(Cl)cc3)SC2)o1`, the TGI in the assay with SR leukemia is 1.16 µM; with NCI-H522 lung, 2 µM; in the assay on HOP-92 NSCLC it was 8.31 µM; with BT-549 breast it was 23.9 µM; in the assay with EKVX NSCLC, 23.9 µM; in the assay with CAKI-1 renal it was 18.4 µM. For the same compound, the TGI in the assay on SF-295 CNS is 23.5 µM; in the assay on SK-OV-3 ovarian it was 34.1 µM; with OVCAR-3 ovarian, 10.6 µM; with RPMI-8226 leukemia, 6.37 µM.

In the case of `CN(C)CCCCC(C(=O)CBr)(c1ccccc1)c1ccccc1`, the GI50 in the assay with SR leukemia was 2.12 µM; in the assay with NCI-H522 lung, 1.25 µM; in the assay with HOP-92 NSCLC, 1.84 µM; in the assay on BT-549 breast, 1.48 µM; in the assay on EKVX NSCLC it was 2.22 µM; in the assay with CAKI-1 renal, 1.42 µM. Further, the GI50 with SF-295 CNS was 5.56 µM; in the assay with SK-OV-3 ovarian, 6.63 µM; in the assay with OVCAR-3 ovarian, 1.37 µM; in the assay on RPMI-8226 leukemia, 1.96 µM. Further, the TGI in the assay on SR leukemia was found to be 7.02 µM; in the assay with NCI-H522 lung, 3.4 µM; with HOP-92 NSCLC, 4.71 µM; in the assay on BT-549 breast, 3.47 µM; with EKVX NSCLC it was 7.42 µM; with CAKI-1 renal, 2.84 µM. Moreover, the TGI was 19.2 µM in the assay with SF-295 CNS, 19.4 µM with SK-OV-3 ovarian, 2.69 µM in the assay on OVCAR-3 ovarian and 5.53 µM in the assay on RPMI-8226 leukemia.

Regarding `COc1ccc2cc(C(=O)/C=C/c3ccc(N(C)C)cc3)ccc2c1`, the GI50 in the assay on SR leukemia was 79.1 µM; in the assay on NCI-H522 lung it was 39.1 µM; with HOP-92 NSCLC it was more than 100 µM; with BT-549 breast, 39.5 µM; in the assay on EKVX NSCLC, 21 µM; in the assay on CAKI-1 renal, 67.5 µM. In addition, the GI50 in the assay with SF-295 CNS, in the assay with SK-OV-3 ovarian, with OVCAR-3 ovarian and with RPMI-8226 leukemia was more than 100 µM in each case. Also, the TGI was more than 100 µM in the assay on SR leukemia; more than 100 µM in the assay with NCI-H522 lung; more than 100 µM in the assay on HOP-92 NSCLC; more than 100 µM with BT-549 breast; 72.1 µM in the assay on EKVX NSCLC; more than 100 µM in the assay with CAKI-1 renal. Further, the TGI in the assay on SF-295 CNS, in the assay with SK-OV-3 ovarian, in the assay on OVCAR-3 ovarian and in the assay with RPMI-8226 leukemia was more than 100 µM throughout.

For the compound `CC1=NN(c2ccc(S(=O)(=O)O)cc2)C(=O)/C1=C/c1ccc(Cl)cc1`, the TGI in the assay with SR leukemia, in the assay on NCI-H522 lung, with HOP-92 NSCLC, with BT-549 breast, in the assay on EKVX NSCLC and in the assay with CAKI-1 renal was more than 100 µM throughout. Further, the TGI in the assay with SF-295 CNS, in the assay with SK-OV-3 ovarian, with OVCAR-3 ovarian and in the assay on RPMI-8226 leukemia was more than 100 µM throughout.

Take `N=N/C(=C\c1c(O)[nH]c2ccccc12)c1ccccc1`: the TGI was 97.5 µM with SR leukemia; 86.7 µM with NCI-H522 lung; more than 100 µM with HOP-92 NSCLC; 62.3 µM in the assay on BT-549 breast; more than 92 µM in the assay on EKVX NSCLC; more than 100 µM in the assay with CAKI-1 renal. The TGI with SF-295 CNS is 66 µM; with SK-OV-3 ovarian, more than 90.2 µM; in the assay with OVCAR-3 ovarian, 44.2 µM; in the assay on RPMI-8226 leukemia it was more than 100 µM.

As for `COCCNc1ccc2c3c(cccc13)C(=O)N(CCN(C)C)C2=O`, the GI50 in the assay on SR leukemia was 3.67 µM; with NCI-H522 lung, 4.06 µM; in the assay with HOP-92 NSCLC it was 10.2 µM; in the assay on BT-549 breast it was 10.7 µM; in the assay with EKVX NSCLC it was 6.23 µM; in the assay with CAKI-1 renal it was 4.49 µM. In addition, the GI50 in the assay on SF-295 CNS is 6.31 µM; in the assay with SK-OV-3 ovarian, 4.28 µM; with OVCAR-3 ovarian, 8.65 µM; with RPMI-8226 leukemia, 5.27 µM. For the same compound, the TGI in the assay with SR leukemia is 11.4 µM; in the assay with NCI-H522 lung, 12.4 µM; in the assay on HOP-92 NSCLC, more than 25 µM; with BT-549 breast it was more than 25 µM; in the assay on EKVX NSCLC, more than 25 µM; with CAKI-1 renal, 10.1 µM. In addition, the TGI in the assay on SF-295 CNS is 21.1 µM; in the assay with SK-OV-3 ovarian, more than 25 µM; in the assay with OVCAR-3 ovarian it was more than 25 µM; in the assay with RPMI-8226 leukemia, 15 µM.

For `CCc1nc(N)nc(N)c1-c1ccc2nnn(O)c2c1`, the TGI in the assay on SR leukemia, in the assay on NCI-H522 lung, in the assay with HOP-92 NSCLC, in the assay with BT-549 breast, in the assay with EKVX NSCLC and with CAKI-1 renal was more than 100 µM in each case. In addition, the TGI in the assay on SF-295 CNS, in the assay with SK-OV-3 ovarian, in the assay on OVCAR-3 ovarian and in the assay with RPMI-8226 leukemia was more than 100 µM throughout.

Regarding `COc1ccc(Nc2cc(C)nc(NCc3ccccc3)n2)cc1`, the GI50 is 3.32 µM with SR leukemia; 3.62 µM in the assay on NCI-H522 lung; 1.19 µM in the assay on HOP-92 NSCLC; 4.42 µM with BT-549 breast; 3.3 µM in the assay with EKVX NSCLC; 3.9 µM in the assay on CAKI-1 renal. The GI50 was 2.57 µM in the assay with SF-295 CNS, 8.84 µM in the assay with SK-OV-3 ovarian, 7.27 µM with OVCAR-3 ovarian and 1.81 µM with RPMI-8226 leukemia. The TGI came to 13 µM in the assay on SR leukemia; 19.2 µM in the assay with NCI-H522 lung; 6.43 µM in the assay on HOP-92 NSCLC; 17.7 µM in the assay with BT-549 breast; 18.6 µM in the assay on EKVX NSCLC; 17.2 µM in the assay with CAKI-1 renal. Further, the TGI with SF-295 CNS was 15.3 µM; in the assay with SK-OV-3 ovarian, 23.8 µM; with OVCAR-3 ovarian it was 24.5 µM; with RPMI-8226 leukemia, 7.41 µM.
